In US20210128561A1, “MRGX Receptor Antagonists” (Rheinische-Friedrich-Wilhelms-Universität Bonn, priority 2019, published 2021):

Legend:
human MrgX4 L83S = target: T1, human MrgX4 L83S (Homo sapiens, UniProt Q96LA9, L83S); test: β-arrestin assay (CHO β-arrestin human MrgX4 L83S); assay type: cell-based; conditions: for % inhibition ± SEM: test concentration not given
T1 construct: expressed in transfected cells; host or cells: CHO beta-arrestin cells

human wildtype MrgX2 = target: T2, human wildtype MrgX2 (Homo sapiens, UniProt Q96LB1); test: calcium assay (LN229 cells recombinantly expressing human wildtype MrgX2); assay type: cell-based; conditions: for % inhibition ± SEM: test concentration not given
T2 construct: expressed in transfected cells; host or cells: LN229 cells
T2 sequence (Q96LB1 1-330): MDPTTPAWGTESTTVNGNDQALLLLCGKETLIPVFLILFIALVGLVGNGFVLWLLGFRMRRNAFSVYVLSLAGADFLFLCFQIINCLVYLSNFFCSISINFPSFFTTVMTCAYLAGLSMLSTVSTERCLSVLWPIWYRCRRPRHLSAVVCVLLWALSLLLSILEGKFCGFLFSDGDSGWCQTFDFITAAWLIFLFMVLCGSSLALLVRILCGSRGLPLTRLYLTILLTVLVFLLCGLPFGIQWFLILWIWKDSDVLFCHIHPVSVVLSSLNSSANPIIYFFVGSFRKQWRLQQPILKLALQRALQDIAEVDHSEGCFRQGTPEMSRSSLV

T1 sequence (Q96LA9 whole entry L83S): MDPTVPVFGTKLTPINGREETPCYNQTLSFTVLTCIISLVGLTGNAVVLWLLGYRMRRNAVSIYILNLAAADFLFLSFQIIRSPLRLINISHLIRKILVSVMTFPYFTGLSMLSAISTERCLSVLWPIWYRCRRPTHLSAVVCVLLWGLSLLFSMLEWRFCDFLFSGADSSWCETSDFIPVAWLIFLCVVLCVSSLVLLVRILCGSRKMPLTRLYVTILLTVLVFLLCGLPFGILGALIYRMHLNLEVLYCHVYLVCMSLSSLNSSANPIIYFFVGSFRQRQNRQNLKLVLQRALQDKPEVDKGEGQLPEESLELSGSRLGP

Compound | IC50 (human MrgX4 L83S) | % inhibition ± SEM (human MrgX4 L83S) | IC50 (human wildtype MrgX2) | % inhibition ± SEM (human wildtype MrgX2)
COC(=O)c1cc(=O)[nH]c2nc3ccccc3n12 [B-65] | > 100 µM | 48% | – | –
Cc1cc(=O)n2c(n1)[nH]c1ccccc12 [B-33] | > 100 µM | 24% | – | –
Cc1cc(=S)n2c(nc3ccccc32)[nH]1 [B-57] | > 100 µM | −4% | – | –
CCc1c(C)nc2[nH]ccn2c1=O [B-31] | > 100 µM | 40% | – | –
O=c1cc(-c2ccccc2)[nH]c2nc3ccccc3n12 [A-20] | > 100 µM | −2% | – | –
Cc1cc(=O)n2c(nc3cc4ccccc4cc32)[nH]1 [B-62] | > 100 µM | 18% | – | –
O=c1c2c([nH]c3nc4ccccc4n13)CCCC2 [B-55] | 5.66 ± 1.15 µM | – | > 100 µM | 20%
N#CCCc1c(-c2ccccc2)[nH]c2nc3ccccc3n2c1=O [A-22] | > 100 µM | 2% | – | –
O=c1ccn2c(n1)[nH]c1ccccc12 [B-64, Benzo[4,5]imidazo[1,2-a]pyrimidin-2(10H)-one] | > 100 µM | 0% | – | –
Cc1cc(=O)n2c3ccccc3nc2n1CC#N [A-7] | > 100 µM | 43% | – | –
Cc1cc(=O)n2cc[nH]c2n1 [A-1] | > 100 µM | 4% | – | –
CC(C)(C)c1cc(=O)n2c(nc3ccccc32)[nH]1 [A-18] | > 100 µM | 48% | – | –
O=c1ccnc2[nH]c3ccccc3n12 [A-2] | > 100 µM | 18% | – | –
2-Methyl-4H-benzo[4,5]thiazolo[3,2-a]pyrimidin-4-one [B-60] | > 100 µM | 14% | – | –
CCCCc1c(O)[nH]c2nc3ccccc3n2c1=O [A-25] | > 100 µM | 22% | – | –
Cc1[nH]c2nc3ccccc3n2c(=O)c1CCC#N [A-16] | > 100 µM | 26% | – | –
NC1=NC=NC2Nc3ccccc3N12 (stereo not shown) [B-66] | > 100 µM | 4% | – | –
COCc1cc(=O)n2c(nc3ccccc32)[nH]1 [A-26] | > 100 µM | −13% | – | –
Cc1cc(=O)n2c(n1)oc1ccccc12 [B-59, 2-Methyl-4H-benzo[4,5]oxazolo[3,2-a]pyrimidin-4-one] | > 100 µM | 13% | – | –

Compound | IC50 (human MrgX4 L83S) | % inhibition ± SEM (human MrgX4 L83S) | IC50 (human wildtype MrgX2) | % inhibition ± SEM (human wildtype MrgX2)
CNCCc1c(C)[nH]c2nc3ccccc3n2c1=O [C-68] | > 100 µM | 8% | – | –
Cc1cc(=O)n2c3ccccc3nc2n1Cc1ccc(Cl)cc1 [A-6] | > 10 µM | 14% | – | –
Cc1[nH]c2nc3ccccc3n2c(=O)c1CCC(C)C [A-12] | > 10 µM | −25% | – | –
CCc1c(C(C)C)nc2n(Cc3ccccc3)c3cc(C)ccc3n2c1=O [C-73] | > 10 µM | 40% | – | –
Cc1cc(=O)n2c3ccccc3nc2n1Cc1ccccc1 [A-5] | > 10 µM | −5% | – | –
CCOC(=O)c1cnc2[nH]c3ccccc3n2c1=O [A-3] | > 100 µM | 25% | – | –
CCOC(=O)Cc1cc(=O)n2c(nc3ccccc32)[nH]1 [A-29] | > 100 µM | −33% | – | –
CCc1c(C(C)C)nc2n(Cc3ccccc3)c3ccc(C)cc3n2c1=O [C-72] | > 10 µM | 39% | – | –
O=c1ccsc2nc3ccccc3n12 [B-58, 4H-benzo[4,5]imidazo[2,1-b][1,3]thiazin-4-one] | > 100 µM | −44% | – | –
COC(=O)Cc1cc(=O)n2c(nc3ccccc32)[nH]1 [A-28] | > 100 µM | 4% | – | –
CC(C)c1cc(=O)n2c(nc3cc4ccccc4cc32)[nH]1 [B-63] | > 100 µM | 6% | – | –
CCc1c(-c2cccs2)[nH]c2nc3ccccc3n2c1=O [C-80] | > 10 µM | 34% | – | –
CCCn1c(C)cc(=O)n2c3ccccc3nc12 [A-4] | > 100 µM | 35% | – | –
O=C(O)c1cnc2[nH]c3ccccc3n2c1=O [B-32] | > 100 µM | 45% | – | –
Cc1[nH]c2nc3ccccc3n2c(=O)c1Cc1ccccc1 [A-13] | > 100 µM | 24% | – | –
Cc1[nH]c2nc3ccccc3n2c(=O)c1CCN=[N+]=[N-] [C-69] | > 100 µM | 9% | – | –
O=C(O)Cc1cc(=O)n2c(nc3ccccc32)[nH]1 [A-27] | > 100 µM | −18% | – | –
CCCCc1c(C)[nH]c2nc3ccccc3n2c1=O [A-11] | > 100 µM | 37% | – | –

Next, values leading:

IC50 (human MrgX4 L83S) | % inhibition ± SEM (human MrgX4 L83S) | IC50 (human wildtype MrgX2) | % inhibition ± SEM (human wildtype MrgX2) | Compound
1.4 ± 0.36 µM | – | 0.199 ± 0.025 µM | – | CCCc1[nH]c2nc3cc(C)c(C)cc3n2c(=O)c1CC [B-44]
5.54 ± 1.74 µM | – | > 10 µM | 86% | CCCc1c(CC)c(=O)n2c([nH]c3ccccc32)c1C#N [C-88]
3.22 ± 0.82 µM | – | > 100 µM | 70% | CC(C)c1cc(=O)n2c(nc3ccccc32)[nH]1 [A-17]
0.54 ± 0.076 µM | – | > 10 µM | 105% | CCc1c(-c2ccccc2)[nH]c2nc3ccccc3n2c1=O [C-79]
8.04 ± 1.63 µM | – | – | – | Cc1[nH]c2nc3ccccc3n2c(=O)c1CCCl [C-67]
> 10 µM | 19% | – | – | Cc1[nH]c2nc3ccccc3n2c(=O)c1CCc1ccccc1 [A-14]
1.18 ± 0.33 µM | – | – | – | CCc1c(C2CC2)[nH]c2nc3ccccc3n2c1=O [C-77]
> 10 µM | 20% | – | – | COCCc1c(C)[nH]c2nc3ccccc3n2c1=O [B-35]
> 10 µM | 2% | > 100 µM | 31% | CCc1c(C)n(C)c2nc3ccccc3n2c1=O [A-30]
0.29 ± 0.098 µM | – | 0.00248 ± 0.00075 µM | – | CCc1c(C(C)C)[nH]c2nc3ccccc3n2c1=O [B-37]
0.0225 ± 0.0024 µM | – | 0.00042 ± 5.4e-05 µM | – | CCc1c(C(C)C)[nH]c2nc3cc(F)c(F)cc3n2c1=O [B-40]
1.4 ± 0.88 µM | – | > 100 µM | 3% | CCOC(=O)CCc1c(C)[nH]c2nc3ccccc3n2c1=O [A-15]
0.477 ± 0.087 µM | – | 0.00827 ± 0.00082 µM | – | CCc1c(C(C)C)[nH]c2nc3cc(Cl)c(Cl)cc3n2c1=O [B-41]
0.018 ± 0.0044 µM | – | 0.00126 ± 0.00029 µM | – | CCc1c(C(C)C)[nH]c2nc3cc(F)ccc3n2c1=O [C-74]
3.23 ± 0.36 µM | – | 0.662 ± 0.102 µM | – | CCc1c(C)[nH]c2nc3ccccc3n2c1=O [A-9]
0.091 ± 0.0292 µM | – | 0.000446 ± 0.000142 µM | – | CCc1c(C(C)C)[nH]c2nc3cc(C)ccc3n2c1=O [C-71]
> 10 µM | 2% | – | – | CSc1cc(C(C)C)nc2nc3ccccc3n12 [B-61]
0.349 ± 0.065 µM | – | – | – | CCc1c(C(C)(C)C)[nH]c2nc3ccccc3n2c1=O [C-76]
0.512 ± 0.107 µM | – | > 100 µM | 68% | CCCc1c(C(C)C)[nH]c2nc3ccccc3n2c1=O [B-42]
0.25 ± 0.061 µM | – | – | – | CCc1c(-c2ccc(OC)cc2)[nH]c2nc3ccccc3n2c1=O [B-46]
2.42 ± 0.22 µM | – | 0.683 ± 0.174 µM | – | CCCc1c(C)[nH]c2nc3ccccc3n2c1=O [A-10]
0.147 ± 0.015 µM | – | 0.000352 ± 7e-05 µM | – | CCc1c(C(C)C)[nH]c2nc3ccc(C)cc3n2c1=O [C-70]
0.223 ± 0.019 µM | – | – | – | CCc1c(C(C)C)[nH]c2nc3ccc(Cl)cc3n2c1=O [C-85]
0.278 ± 0.042 µM | – | – | – | CCCc1[nH]c2nc3ccccc3n2c(=O)c1CC [B-43]
